{
  "source": "patent US11149028B2",
  "about": "“Methods for treating melanoma using small molecules” (NOVA SOUTHEASTERN UNIVERSITY, priority 2016, dated 2021)",
  "key": {"PC-3 cells": {"tested_on": "PC-3 cells", "details": "read-out: IC50, apoptotic cell death of PC-3 cells; cited from earlier work"}, "WM266-4 cells": {"tested_on": "WM266-4 cells", "test": "CellTiter-Glo cell viability assay, WM266-4 (including rescue assays)", "assay_type": "cell-based, human", "details": "72 h", "description": "Cells were plated in 384-well plates in 8 μL of media. Test compounds and dabrafenib (pharmacological assay control) were prepared as 10-point, 1:3 serial dilutions starting at 300 μM, then added to the cells (4 μL per well) using the Biomek Plates were incubated for 72 h at 37° C., 5% CO2 and 95% relative humidity. After incubation, 4 μL of CellTiter-Glo® (Promega cat #: G7570) were added to each well, and incubated for 15 min at room temperature. Luminescence was recorded using a Biotek Synergy H4 multimode microplate reader. Viability was expressed as a percentage relative to wells containing media only (0%) and wells containing cells treated with DMSO only (100%). Three parameters were calculated on a per-plate basis: (a) the signal-to-background ratio (SB); (b) the coefficient for variation [CV; CV=(standard deviation/mean)×100)] for all compound test wells; and (c) the Z′-factor (18). The IC50 value of the pharmacological control (dabrafenib, LC Laboratories #G-4408) was also calculated to ascertain the assay robustness. In case of viability rescue assays, cells were pre-treated with caspase, calpain, and autophagy inhibitors for 1-3 h before addition of test compounds. Time course viability assay was done with luminescence measurements performed at 4, 24, 48, and 72 h."}, "DDX1": {"target": "T1, DDX1 (Homo sapiens, UniProt Q92499)", "T1 construct": "WM-266-4 and M14 cells were sonicated in RIPA lysis buffer; endogenous in cells; host or cells: WM266-4 (and M14) melanoma cells and lysates", "test": "Pull-down with biotinylated analogs, western blot", "assay_type": "binding", "details": "WM266-4 lysates", "description": "WM-266-4 and M14 cells were sonicated in RIPA lysis buffer containing added protease inhibitors. Affinity beads were prepared by addition of the 0.3 mg biotinylated probes to the 50 μL of streptavidin agarose resin, which was washed three times with the lysis buffer. Following incubation at 4° C. for 1 h, the obtained affinity beads complexed with biotinylated compounds were washed three times with lysis buffer to remove any unbound materials. The cell lysates (1 mg protein content) were then added to the probe-bound beads, and samples were incubated at 4° C. for 1 h and overnight on a rotator. Following 5 washes with lysis buffer, the samples were subjected to SDS-PAGE. The gels were stained overnight with colloidal blue (Invitrogen). […]\nWM-266-4 cells were sonicated in RIPA lysis buffer containing protease inhibitors. […] Following 5 washes with lysis buffer, the protein isolates were subjected to SDS-PAGE followed by transfer to nitrocellulose membrane. hnRNP H2 was detected using rabbit polyclonal antibody (Abgent #: AP13497b; 1:3,000, in 2% milk overnight), DDX1 monoclonal antibody (Santa Cruz #sc-271393, 1:1,000 in 2% BSA overnight), or hnRNP B1/A2 monoclonal antibody (Santa Cruz #SC-32316, 1:1,000 in 2% BSA overnight). […] ImageJ software (NIH, Bethesda, Md.) was used to quantify the intensity of proteins bands. […]"}, "lamin A/C": {"tested_on": "lamin A/C", "test": "Pull-down with biotinylated analogs", "assay_type": "binding, human", "details": "WM266-4 lysates", "description": "(§1) WM-266-4 and M14 cells were sonicated in RIPA lysis buffer containing added protease inhibitors. Affinity beads were prepared by addition of the 0.3 mg biotinylated probes to the 50 μL of streptavidin agarose resin, which was washed three times with the lysis buffer. Following incubation at 4° C. for 1 h, the obtained affinity beads complexed with biotinylated compounds were washed three times with lysis buffer to remove any unbound materials. The cell lysates (1 mg protein content) were then added to the probe-bound beads, and samples were incubated at 4° C. for 1 h and overnight on a rotator. Following 5 washes with lysis buffer, the samples were subjected to SDS-PAGE. The gels were stained overnight with colloidal blue (Invitrogen). Gel bands of interest were excised, reduced, carbidomethylated, dehydrated, and digested with Trypsin Gold (Promega) as per manufacturers' instructions. Following digestion, peptides were extracted, all fractions were combined, and the volume was reduced in a SpeedVac to near dryness, and re-suspended to 20 μL using 95% ddH2O/5% ACN/0.1% formic acid (FA) prior to analysis by 1D reversed-phase LC-nESI-MS2 (as outlined below) (Ludwig, M. R. et al. Surveying the serologic proteome in a tissue-specific kras(G12D) knockin mouse model of pancreatic cancer. Proteomics 16, 516-531, doi:10.1002/pmic.201500133 2016)."}, "[1]": {"tested_on": "cleaved lamin A/C in WM266-4 cells", "test": "Western blotting for lamin A/C cleavage", "assay_type": "cell-based, human", "details": "100 μM, 24 h", "description": "(§2) 1×10^6 of WM266-4 or M14 cells were seeded in 3 mL of E-MEM or RPMI-1640 medium supplemented with 10% FBS and 1% penicillin/streptomycin in 6 cm plates. […] After washing with TBST, the membranes were treated with chemilumiscent horseradish peroxidase detection reagent (Thermo Scientific, Cat #32209) and exposed to autoradiography film (Denville Scientific, Inc., Metuchen, N.J., USA, cat #E3018). ImageJ software (NIH, Bethesda, Md.) was used to quantify the intensity of proteins bands. The protein bands were normalized against loading controls."}, "hnRNP H2": {"tested_on": "hnRNP H2", "test": "Pull-down with biotinylated analogs, western blot", "assay_type": "binding, human", "details": "WM266-4 lysates", "description": "as §1\n(§3) WM-266-4 cells were sonicated in RIPA lysis buffer containing protease inhibitors. Affinity beads were prepared by addition of the biotinylated probes (0.3 mg) to the streptavidin agarose resin (50 μL), which was first washed three times with the lysis buffer. […] The protein extract (1 mg) was then added to the probe-bound beads, and samples were incubated at 4° C. overnight. Following 5 washes with lysis buffer, the protein isolates were subjected to SDS-PAGE followed by transfer to nitrocellulose membrane. hnRNP H2 was detected using rabbit polyclonal antibody (Abgent #: AP13497b; 1:3,000, in 2% milk overnight), DDX1 monoclonal antibody (Santa Cruz #sc-271393, 1:1,000 in 2% BSA overnight), or hnRNP B1/A2 monoclonal antibody (Santa Cruz #SC-32316, 1:1,000 in 2% BSA overnight). After washing with TBST, the membranes were treated with chemilumiscent horseradish peroxidase detection reagent (Thermo Scientific, Cat #32209) and exposed to autoradiography film (Denville Scientific, Inc., Metuchen, N.J., USA, cat #E3018). ImageJ software (NIH, Bethesda, Md.) was used to quantify the intensity of proteins bands. The protein bands were normalized against loading controls."}, "hnRNP A2/B1": {"tested_on": "hnRNP A2/B1", "test": "Pull-down with biotinylated analogs, western blot", "assay_type": "binding, human", "details": "WM266-4 lysates", "description": "as §1, §3"}, "[2]": {"tested_on": "LC3-II and beclin-1 in WM266-4 cells", "test": "Western blotting for LC3 and beclin-1, WM266-4", "assay_type": "cell-based, human", "details": "100 μM, 24 h", "description": "as §2, with “controls (β-actin) and expressed as a fold of an untreated control.” for “controls.”"}},
  "note": "“Also recorded” adds a separate entry of the source.",
  "data": [
    {"smiles": "O=c1c(O)c(-c2ccc(O)c(O)c2)oc2cc(O)cc(O)c12", "note": "[quercetin]", "values": [
      {"measurement": "IC50", "setting": "PC-3 cells", "result": 100, "unit": "µM"}
    ]},
    {"smiles": "O=C(CCCC[C@H]1SC[C@H]2NC(=O)N[C@H]21)NCCCC[C@H]1CN([C@H](CC2CCCCC2)CN2CCC[C@H]2CN2C(=O)C(=O)NC[C@@H]2Cc2ccccc2)C(=O)C(=O)N1CCc1ccccc1", "note": "[Compound 2529-7, N-(4-((S)-4-((R)-1-((S)-2-(((S)-6-benzyl-2,3-dioxopiperazin-1-yl)methyl)pyrrolidin-1-yl)-3-cyclohexylpropan-2-yl)-5,6-dioxo-1-phenethylpiperazin-2-yl)butyl)-5-((3aR,4R,6aS)-2-oxohexahydro-1H-thieno[3,4-d]imidazol-4-yl)pentanamide]", "values": [
      {"measurement": "inhibition of WM266-4 viability", "setting": "WM266-4 cells; 100 μM", "result": "completely inhibited viability"},
      {"measurement": "IC50", "setting": "WM266-4 cells; Homo sapiens, WM 266-4, 72 h", "result": "3.3 ± 0.5", "unit": "µM"},
      {"measurement": "DDX1 in pulldown, western blot", "setting": "DDX1", "result": "confirmed"},
      {"measurement": "lamin A/C interaction in pulldown", "setting": "lamin A/C", "result": "lack of lamin A/C interaction"},
      {"measurement": "cleaved lamin A/C level", "setting": "[1]", "result": "failing to increase levels of cleaved lamin A/C; also recorded: had no effect on cleavage of lamin A/C; also recorded: did not induce cleavage of lamin A/C"},
      {"measurement": "hnRNP H2 in pulldown, western blot", "setting": "hnRNP H2", "result": "two bands"},
      {"measurement": "hnRNP A2/B1 in pulldown, western blot", "setting": "hnRNP A2/B1", "result": "three bands"},
      {"measurement": "LC3-II level", "setting": "[2]", "result": "increased LC3-II to the levels of 2155-14/2529-1; also recorded: effect on LC3-II levels similar to non-biotinylated 2155-14/2529-1"}
    ]}
  ]
}
